Measured values published in patent publication US12617773B2, “Azetidin-3-ylmethanol derivatives as CCR6 receptor modulators” (Idorsia Pharmaceuticals Ltd, priority 2020, dated 2026).

target: T1, human CCR6 (Homo sapiens, UniProt P51684); test: FLIPR assay (inhibition of CCL20-induced calcium signal); assay type: cell-based; settings: HEK-293 cells expressing human CCR6; mean values where determined several times; read-out: FLIPR IC50
T1 construct: expressed in transfected cells; host or cells: HEK-293
T1 sequence (P51684 1-374): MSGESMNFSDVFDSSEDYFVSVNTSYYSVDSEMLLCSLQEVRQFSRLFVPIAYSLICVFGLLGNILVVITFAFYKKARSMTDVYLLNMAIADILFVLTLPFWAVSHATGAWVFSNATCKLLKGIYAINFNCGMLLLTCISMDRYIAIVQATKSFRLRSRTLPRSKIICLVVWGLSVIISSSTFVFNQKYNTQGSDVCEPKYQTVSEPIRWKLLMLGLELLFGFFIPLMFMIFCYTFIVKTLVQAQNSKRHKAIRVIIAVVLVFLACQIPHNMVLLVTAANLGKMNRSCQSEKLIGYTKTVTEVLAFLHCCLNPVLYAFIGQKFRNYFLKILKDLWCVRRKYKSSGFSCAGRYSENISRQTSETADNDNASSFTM
Summary of the method: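 IC50 values come from baseline-corrected peak calcium fluorescence after agonist. The agonist was CCL20 at 10 nM final, added to engineered human CCR6 HEK-293 cells following a 30-min, room-temperature, dark preincubation with serially diluted compound. Readings were taken in a fluorometric imaging plate reader.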

Row | SMILES | IC50
1 | CC(C)c1ccc([C@](O)(c2cncc(N3CC(C(C)C)OC3=O)c2)C2(C)CN(C)C2)cc1 (some centres unmarked) [Example 196] | 0.0676 µM
2 | CCCN1CC(C)([C@](O)(c2ccc(C(C)C)cc2)c2cncc(-c3noc(C4CCN(C(C)=O)CC4)n3)c2)C1 [Example 584] | 0.13 µM
3 | CC(C)c1ccc([C@](O)(c2cncc(C(=O)NC3CCCC3)c2)C2(C)CN(C)C2)cc1 [Example 306, N-Cyclopentyl-5-[(R)-(1,3-dimethyl-azetidin-3-yl)-hydroxy-(4-isopropyl-phenyl)-methyl]-nicotinamide] | 0.101 µM
4 | CC(C)c1ccc([C@](O)(c2ccnc(N3C[C@@H](F)[C@@H](F)C3)c2)C2(C)CN(C)C2)cc1 [Example 163, (S)-[2-((3R,4S)-3,4-Difluoro-pyrrolidin-1-yl)-pyridin-4-yl]-(1,3-dimethyl-azetidin-3-yl)-(4-isopropyl-phenyl)-methanol] | 0.0246 µM
5 | CC(C)c1ccc([C@](O)(c2cncc(-c3noc(C4CCNCC4)n3)c2)C2(C)CN(C)C2)cc1 [Example 367] | 0.321 µM
6 | CC(C)c1ccc([C@](O)(c2cncc(-c3noc(C4(C)CNC(=O)C4)n3)c2)C2(C)CN(C)C2)cc1 (some centres unmarked) [Example 482] | 0.0923 µM
7 | CC(C)c1ccc([C@](O)(c2cncc(N3CC(c4ccccc4)OC3=O)c2)C2(C)CN(C)C2)cc1 (some centres unmarked) [Example 194] | 0.0205 µM
8 | CC(C)c1ccc([C@](O)(c2cncc(-c3noc(CC#N)n3)c2)C2(C)CN(C)C2)cc1 [Example 497] | 0.0743 µM
9 | CC(C)c1ccc(C(O)(c2cncc(C3CCC(O)C3)c2)C2(C)CN(C)C2)cc1 (centres unmarked) [Example 292] | 0.748 µM
10 | CC(C)c1ccc([C@](O)(c2cncc(CCC3CCOCC3)c2)C2(C)CN(C)C2)cc1 [Example 65] | 0.0447 µM
11 | CC(C)c1ccc(C(O)(c2ccnc(N3CCC[C@@H]3CO)c2)C2(C)CN(C)C2)cc1 (some centres unmarked) [Example 274] | 0.252 µM
12 | Cc1cc(C(C)(O)C#Cc2cncc([C@@](O)(c3ccc(C(C)C)cc3)C3(C)CN(C)C3)c2)nn1C (single isomer, unassigned) [Example 401] | 0.117 µM
13 | CC(C)c1ccc([C@](O)(c2cnnc(OC3CCC(F)(F)C3)c2)C2(C)CN(C)C2)cc1 (stereo partly drawn) [Example 393, (R)-[6-(3,3-Difluoro-cyclopentyloxy)-pyridazin-4-yl]-(1,3-dimethyl-azetidin-3-yl)-(4-isopropyl-phenyl)-methanol] | 0.0251 µM
14 | CC(C)c1ccc([C@](O)(c2cncc(OC3CCCCC3)c2)C2(C)CN(C)C2)cc1 [Example 251] | 0.00825 µM

Second part, the molecule after the results:

Row | IC50 | SMILES
15 | 0.0482 µM | CC(C)c1ccc([C@](O)(c2cncc(N3CC4(CC(C)(C)C4)OC3=O)c2)C2(C)CN(C)C2)cc1 [Example 204]
16 | 0.0619 µM | CC(C)c1ccc([C@](O)(c2cncc(CCC(C)(O)c3ccccn3)c2)C2(C)CN(C)C2)cc1 (some centres unmarked) [Example 415]
17 | 0.0368 µM | CN1CC(C)(C(O)(c2ccc(C3CCC3)cc2)c2cncc(N3CCCC3)c2)C1 (centres unmarked) [Example 154]
18 | 0.656 µM | CC(C)c1ccc([C@](O)(c2cncc(C#C[C@]3(O)CCN(C)C3=O)c2)C2(C)CN(C)C2)cc1 [Example 609]
19 | 0.0307 µM | CC(C)c1ccc([C@](O)(c2cncc(C3=COCC3)c2)C2(C)CN(C)C2)cc1 [Example 303, (R)-[5-(4,5-Dihydro-furan-3-yl)-pyridin-3-yl]-(1,3-dimethyl-azetidin-3-yl)-(4-isopropyl-phenyl)-methanol]
20 | 0.0818 µM | COc1nccc(C(C)(O)C#Cc2cncc([C@@](O)(c3ccc(C(C)C)cc3)C3(C)CN(C)C3)c2)n1 (single isomer, unassigned) [Example 624]
21 | 0.086 µM | CC(C)c1ccc([C@](O)(c2cncc(C3CCC(C)(C)O3)c2)C2(C)CN(C)C2)cc1 (some centres unmarked) [Example 320]
22 | 0.0211 µM | COc1ccccc1C(C)(O)C#Cc1cncc([C@@](O)(c2ccc(C(C)C)cc2)C2(C)CN(C)C2)c1 (some centres unmarked) [Example 34]
23 | 0.532 µM | [2H]C([2H])([2H])C(=O)N1CC(c2nc(-c3cncc([C@@](O)(c4ccc(C(C)C)cc4)C4(C)CN(C)C4)c3)no2)C1 [Example 343]
